Here are results for 21 compounds from patent publication US10323037B2, “Aminopyridazinone compounds as protein kinase inhibitors” (Jiangsu Hengrui Medicine Co., Ltd., priority 2014, dated 2019).

The subject of one test is TMD-8 cells. The experiment in a line: Cell proliferation assay (CellTiter-Glo), TMD-8. The format is cell-based. Conditions: 5-day treatment; read-out: TMD8 cells growth IC50. The procedure: Cell proliferation assay: TMD-8 and SU-DHL-1 cells were maintained at 37° C. in a humidified atmosphere with 5% CO2 in the recommended medium and serum concentrations. For cell proliferation assay, cells were seeded in 96-well pates at a density of 5,000 to 10,000 cells per well and cultured overnight at 37° C. in recommended medium supplemented with 5-10% FBS. On the next day, the test articles at various concentrations or vehicle control (0.5% DMSO) were added into cell culture. After 5-day treatment, the growth of cells was assayed by the CellTiter-Glo® Luminestceaent Cell Viability Assay (Promega). IC50 values were calculated using GraphPad Prism by plotting the logarithm of the concentration versus percent inhibition of cell growth as compared with the vehicle control.
On the technique in general: Cellular ATP, detected with luciferase, serves as a proxy for viable cell number.
With `CN(C)C/C=C/C(=O)N1CCC(F)C(n2cc(-c3ccc(Oc4ccccc4)cc3)c3c(N)n[nH]c(=O)c32)C1` (stereo not drawn) [Example 45, 4-amino-1-[1-[(E)-4-(dimethylamino)but-2-enoyl]-4-fluoro-3-piperidyl]-3-(4-phenoxyphenyl)-6H-pyrrolo[2,3 d]pyridazin-7-one], the IC50 (usually the concentration at which inhibition is half-maximal) was no more than 10 nM.
Consider `CN(C)C/C=C/C(=O)NC1CCC(n2cc(-c3ccc(Oc4ccccc4)cc3)c3c(N)n[nH]c(=O)c32)CC1` (stereo not drawn) [Example 46, (E)-N-[4-[4-amino-7-oxo-3-(4-phenoxyphenyl)-6H-pyrrolo[2,3 d]pyridazin-1-yl]cyclohexyl]-4-(dimethylamino)but-2-enamide], for which the IC50 was in the range of 10 to 1000 nM.
Still for that read-out and setting: then `CN(C)C/C=C/C(=O)N1CC(Cn2cc(-c3ccc(Oc4ccccc4)cc3)c3c(N)n[nH]c(=O)c32)C1` [Example 47, 4-amino-1-[[1-[(E)-4-(dimethylamino)but-2-enoyl]azetidin-3-yl]methyl]-3-(4-phenoxyphenyl)-6H-pyrrolo[2,3 d]pyridazin-7-one], with no more than 10 nM.
Same read-out and setting: then `CN(C)C/C=C/C(=O)NC1C2CCC1CC(n1cc(-c3ccc(Oc4ccccc4)cc3)c3c(N)n[nH]c(=O)c31)C2` (stereo not drawn) [Example 48, (E)-N-[3-[4-amino-7-oxo-3-(4-phenoxyphenyl)-6H-pyrrolo[2,3 d]pyridazin-1-yl]-8-bicyclo[3.2.1]octanyl]-4-(dimethylamino)but-2-enamide], with 10 to 1000 nM.

The same test, now with this note: Homo sapiens, TMD8, 120 h; 5-day treatment; read-out: TMD8 cells growth IC50.
Regarding `CN(C)C/C=C/C(=O)N1CCCC(n2cc(-c3ccc(Oc4ccccc4)cc3)c3c(N)n[nH]c(=O)c32)C1` (stereo not drawn) [Example 38, 4-amino-1-[1-[(E)-4-(dimethylamino)but-2-enoyl]-3-piperidyl]-3-(4-phenoxyphenyl)-6H-pyrrolo[2,3-d]pyridazin-7-one], the IC50 was no more than 10 nM.
The same measure, in the same setting: then `CN(C)C/C=C/C(=O)N1CC[C@@H](n2cc(-c3ccc(Oc4ccccc4)cc3)c3c(N)n[nH]c(=O)c32)C1` [Example 39, 4-amino-1-[(3R)-1-[(E)-4-(dimethylamino)but-2-enoyl]pyrrolidin-3-yl]-3-(4-phenoxyphenyl)-6H-pyrrolo[2,3-d]pyridazin-7-one], with no more than 10 nM; and `CN(C)C/C=C/C(=O)N1CC(n2cc(-c3ccc(Oc4ccccc4)cc3)c3c(N)n[nH]c(=O)c32)C1` [Example 40, 4-amino-1-[1-[(E)-4-(dimethylamino)but-2-enoyl]azetidin-3-yl]-3-(4-phenoxyphenyl)-6H-pyrrolo[2,3-d]pyridazin-7-one], with 10 to 1000 nM.
Still for that read-out and setting: then `CN(C)C/C=C/C(=O)N1CCC[C@H]1Cn1cc(-c2ccc(Oc3ccccc3)cc2)c2c(N)n[nH]c(=O)c21` [Example 41, 4-amino-1-[[(2S)-1-[(E)-4-(dimethylamino)but-2-enoyl]pyrrolidin-2-yl]methyl]-3-(4-phenoxyphenyl)-6H-pyrrolo[2,3-d]pyridazin-7-one], with 10 to 1000 nM; and `CN(C)C/C=C/C(=O)N1CCC(Cn2cc(-c3ccc(Oc4ccccc4)cc3)c3c(N)n[nH]c(=O)c32)C1` (stereo not drawn) [Example 43, 4-amino-1-[[1-[(E)-4-(dimethylamino)but-2-enoyl]pyrrolidin-3-yl]methyl]-3-(4-phenoxyphenyl)-6H-pyrrolo[2,3-d]pyridazin-7-one], with 10 to 1000 nM.
`CN(C)C/C=C/C(=O)N1CCC(n2cc(-c3ccc(Oc4ccccc4)cc3)c3c(N)n[nH]c(=O)c32)CC1` [Example 44, 4-amino-1-[1-[(E)-4-(dimethylamino)but-2-enoyl]-4-piperidyl]-3-(4-phenoxyphenyl)-6H-pyrrolo[2,3-d]pyridazin-7-one]: the 50% inhibitory concentration (IC50) lay in the range of 10 to 1000 nM.
Consider `CN(C)C/C=C/C(=O)N1C[C@H](n2cc(-c3ccc(Oc4ccccc4)cc3)c3c(N)n[nH]c(=O)c32)CC(F)(F)C1` [Example 49, 4-amino-1-[(3R)-1-[(E)-4-(dimethylamino)but-2-enoyl]-5,5-difluoro-3-piperidyl]-3-(4-phenoxyphenyl)-6H-pyrrolo[2,3-d]pyridazin-7-one], for which the IC50 lay within 10 to 1000 nM.
On the same count and under the same terms, then `N#C/C(=C\C1CC1)C(=O)N1CCC[C@@H](n2cc(-c3ccc(Oc4ccccc4)cc3)c3c(N)n[nH]c(=O)c32)C1` [Example 50, (E)-2-[(3R)-3-[4-amino-7-oxo-3-(4-phenoxyphenyl)-6H-pyrrolo[2,3-d]pyridazin-1-yl]piperidine-1-carbonyl]-3-cyclopropyl-prop-2-enenitrile], with 10 to 1000 nM.
The same measure, in the same setting: then `C=CC(=O)N1CCCC(n2cc(-c3ccc(OC)cc3)c3c(N)n[nH]c(=O)c32)C1` (stereo not drawn) [Example 51, 1-(1-acryloylpiperidin-3-yl)-4-amino-3-(4-methoxyphenyl)-1H-pyrrolo[2,3-d]pyridazin-7(6H)-one], with 10 to 1000 nM; and `COc1ccc(-c2cn(C3CCCN(C(=O)/C=C/CN(C)C)C3)c3c(=O)[nH]nc(N)c23)cc1` (stereo not drawn) [Example 52, 4-amino-1-[1-[(E)-4-(dimethylamino)but-2-enoyl]-3-piperidyl]-3-(4-methoxyphenyl)-6H-pyrrolo[2,3-d]pyridazin-7-one], with 1000 to 100000 nM.
Turning to `C=CC(=O)N1CCCC(n2cc(-c3ccc(OC)c(Cl)c3)c3c(N)n[nH]c(=O)c32)C1` (stereo not drawn) [Example 53, 1-(1-acryloylpiperidin-3-yl)-4-amino-3-(3-chloro-4-methoxyphenyl)-1H-pyrrolo[2,3-d]pyridazin-7(6H)-one], the half-inhibitory concentration (IC50) fell in the range of 10 to 1000 nM.
Still for that read-out and setting: then `COc1ccc(-c2cn(C3CCCN(C(=O)/C=C/CN(C)C)C3)c3c(=O)[nH]nc(N)c23)cc1Cl` (stereo not drawn) [Example 54, 4-amino-3-(3-chloro-4-methoxy-phenyl)-1-[1-[(E)-4-(dimethylamino)but-2-enoyl]-3-piperidyl]-6H-pyrrolo[2,3-d]pyridazin-7-one], with 10 to 1000 nM; and `C=CC(=O)N1CCCC(n2cc(-c3ccc(Oc4ccccc4F)cc3)c3c(N)n[nH]c(=O)c32)C1` (stereo not drawn) [Example 55, 1-(1-acryloylpiperidin-3-yl)-4-amino-3-(4-(2-fluorophenoxy)phenyl)-1H-pyrrolo[2,3-d]pyridazin-7(6H)-one], with no more than 10 nM.
Same read-out and setting: then `C=CC(=O)N1CCC[C@@H](n2cc(-c3ccc(Oc4ccccc4F)cc3)c3c(N)n[nH]c(=O)c32)C1` [Example 56, (R)-1-(1-acryloylpiperidin-3-yl)-4-amino-3-(4-(2-fluorophenoxy)phenyl)-1H-pyrrolo[2,3-d]pyridazin-7(6H)-one], with no more than 10 nM; and `CN(C)C/C=C/C(=O)N1CCC[C@@H](n2cc(-c3ccc(Oc4ccccc4F)cc3)c3c(N)n[nH]c(=O)c32)C1` [Example 57, 4-amino-1-[(3R)-1-[(E)-4-(dimethylamino)but-2-enoyl]-3-piperidyl]-3-[4-(2-fluorophenoxy)phenyl]-6H-pyrrolo[2,3-d]pyridazin-7-one], with no more than 10 nM.
On the same count and under the same terms, then `C=CC(=O)N1CCC[C@@H](n2cc(-c3ccc(Oc4c(F)cccc4F)cc3)c3c(N)n[nH]c(=O)c32)C1` [Example 58, (R)-1-(1-acryloylpiperidin-3-yl)-4-amino-3-(4-(2,6-difluorophenoxy)phenyl)-1H-pyrrolo[2,3-d]pyridazin-7(6H)-one], with no more than 10 nM; and `CN(C)C/C=C/C(=O)N1CCC[C@@H](n2cc(-c3ccc(Oc4c(F)cccc4F)cc3)c3c(N)n[nH]c(=O)c32)C1` [Example 59, 4-amino-3-[4-(2,6-difluorophenoxy)phenyl]-1-[(3R)-1-[(E)-4-(dimethylamino)but-2-enoyl]-3-piperidyl]-6H-pyrrolo[2,3-d]pyridazin-7-one], with no more than 10 nM.
